{
  "source": "patent EP0750511B1",
  "about": "“TREATING IN[…] THE ADMINISTRATION OF SPECIFIC SULFATASE ENZYMES AND/OR SULFATION INHIBITOR” (THE REGENTS OF THE UNIVERSITY OF CALIFORNIA, priority 1994, dated 1995)",
  "key": {"GlyCAM-1 [1]": {"tested_on": "GlyCAM-1", "experiment": "[3H]-fucose metabolic labelling of lymph node organ culture (fucosylation of GlyCAM-1)", "assay_type": "cell-based, mouse", "method": "(§1) To determine directly whether the fucosylation of GlyCAM-1 was affected by chlorate, ^3H-fucose was employed as a metabolic precursor. […] However, while LEC-IgG precipitated GlyCAM-1 in the control culture, LEC-IgG precipitated only a background level of counts (7% of control) from the chlorate-treated culture and there was no detectable GlyCAM-1.\nPooled mesenteric and peripheral lymph nodes from ICR mice (80 mg wet weight per condition) were incubated with (a) 250 µCi of [^35-S]-sodium sulfate (ICN) or (b) 250 µCi of [5,6 ^3-H]-L-fucose (ICN) in the presence or absence of 10 mM Na chlorate (Aldrich) in 0.5 ml of RPMI-1640 with 25 mM HEPES (1/10 sulfate concentration) for 4 h at 37°C. Tissue was extracted with 1.2 ml of 2% Triton X-100 (Boehringer Mannheim) in Dulbecco's PBS containing 1 mM PMSF (Sigma), 1% (v/v) aprotinin (Sigma), 10 µg/ml of pepstatin (Boehringer Mannheim) and 0.02% NaN3 (lysis buffer) as described previously^11. The lysates were boiled 3 min and the supernatants were precleared with 100 µl of Protein A Sepharose (Zymed) overnight. […]"}, "L-selectin": {"tested_on": "L-selectin", "experiment": "Precipitation of metabolically labelled GlyCAM-1 from lymph node cultures with L-selectin chimera (LEC-IgG)", "assay_type": "cell-based", "method": "(§2) Slices of mouse lymph nodes were cultured with ^35S-sulfate in the presence and absence of 10 mM sodium chlorate. Detergent lysates were prepared and subjected to precipitation with several reagents that recognize GlyCAM-1. […] Only a background level (0.9% of control) of radioactivity was measured in the precipitate from the chlorate-treated culture.\nas §1\n(§3) To determine what effect chlorate had on the synthesis of the protein core of GlyCAM-1, we employed ^3H-threonine as a metabolic label. […] With or without chlorate treatment, two antibodies against the core protein of GlyCAM-1 precipitated broad bands that ran at ≈50K.\n(§4) Pooled mesenteric and peripheral lymph nodes from ICR mice (80 mg wet weight per condition) were incubated with (a) 250 µCi of [^35-S]-sodium sulfate (ICN) or (b) 250 µCi of [5,6 ^3-H]-L-fucose (ICN) in the presence or absence of 10 mM Na chlorate (Aldrich) in 0.5 ml of RPMI-1640 with 25 mM HEPES (1/10 sulfate concentration) for 4 h at 37°C. Tissue was extracted with 1.2 ml of 2% Triton X-100 (Boehringer Mannheim) in Dulbecco's PBS containing 1 mM PMSF (Sigma), 1% (v/v) aprotinin (Sigma), 10 µg/ml of pepstatin (Boehringer Mannheim) and 0.02% NaN3 (lysis buffer) as described previously^11. The lysates were boiled 3 min and the supernatants were precleared with 100 µl of Protein A Sepharose (Zymed) overnight. Aliquots of the precleared supernatants were added to 10 µl beads of LEC-IgG-Protein A Sepharose Beads (30 µg LEC-IgG per 10 µl beads), rabbit anti-peptide 2-Protein A beads (10 µl serum per 10 µl beads), rabbit preimmune serum-Protein A beads (10 µl serum per 10 µl beads), Limax flavus agglutinin-Sepharose beads (20 µg protein per 10 µl beads), or Aleuria aurantia agglutinin-Sepharose beads (10 µg protein per 10 µl beads), and incubated for 4 h at 4°C on a rocker. The beads were washed in the lysis buffer (6 times), and the 1/14 aliquots of beads were saved for direct counting by a scintillation counting and the remainder of beads were solubilized in Laemmli sample buffer (without beta mercaptoethanol) and run by on a 10% acrylamide gel (nonreducing condition) with fluorography employing ENHANCE (New England Nuclear). Molecular weight markers (BioRad) were phosphorylase B (97.4 K), BSA (66.2 K), ovalbumin (45 K), carbonic anhydrase (31 K), soybean trypsin inhibitor (21.5 K). LEC-IgG and antiserum were coated on Protein A-Sepharose beads by rocking overnight at 4°C. Lectin beads were prepared by coupling Limax agglutinin (Calbiochem) and AAA (Boehringer Mannheim) to CNBr-activated Sepharose 4B (Sigman). Miller, R., Meth. Enzymol. 138:527-536 (1987).\n(§5) Mouse lymph nodes were labeled with 750 µCi of L-[3-^3H] threonine (Amersham) in 0.5 ml of threonine free-1/10 sulfate concentration-RPMI 1640 containing 25 mM HEPES for 4 h at 37°C in the absence or the presence of 10 mM sodium chlorate. Detergent lysates were boiled, precleared and subjected to precipitation with the indicated reagent as described in Example 1. Conditioned media were precleared and precipitated in parallel. The bead-bound material was analyzed on SDS-PAGE under reducing conditions with fluorography. In the anti-peptide antibody lanes, the ≈50K component was compressed by the immunoglobulin heavy chain."}, "GlyCAM-1 [2]": {"tested_on": "GlyCAM-1", "experiment": "[3H]-threonine metabolic labelling of lymph nodes (synthesis of protein core)", "assay_type": "cell-based, mouse", "conditions": "presence of chlorate", "method": "as §3, §5"}, "CD34/Sgp90": {"tested_on": "CD34/Sgp90", "experiment": "Interaction of CD34/Sgp90 with L-selectin after inhibition of its sulfation", "assay_type": "cell-based", "conditions": "sulfation inhibited by chlorate treatment", "text": "The complete loss of reactivity with LEC-IgG establishes the importance of sulfation for binding. […] CD34/Sgp90 is also a sulfated ligand of L-selectin."}, "GlyCAM-1 [3]": {"tested_on": "GlyCAM-1", "experiment": "Label incorporation into GlyCAM-1 immunoprecipitated (CAM02 Ab) from conditioned medium of lymph node organ culture", "assay_type": "cell-based, mouse", "method": "(^3H-Gal)-labeled GlyCAM-1 was produced in mouse lymph node organ cultures as described in Examples 1-4 above. Undersulfated GlyCAM was generated by organ culture of murine lymph nodes in medium containing 10 mM Na-chlorate, a known inhibitor of sulfation. GlyCAM-1 was isolated from the conditioned media by immunoprecipitation with an antibody to a peptide sequence in the core protein of GlyCAM-1 (CAM02 Ab), as described in Examples 1-4 above. […] Desialylation of GlyCAM-1 was accomplished in all cases by treatment with Arthrobacter ureafacens sialidase (1.75 units/ml) in 120 mM Na acetate, pH 5.5 (18 h 37°C)."}, "GlyCAM-1 [4]": {"tested_on": "GlyCAM-1", "experiment": "[35S]-sulfate metabolic labelling of lymph node organ culture; precipitation of GlyCAM-1 with peptide antibody or lectins, scintillation counting", "assay_type": "cell-based, mouse", "method": "as §2, §4\nInhibition of GlyCAM-1 sulfation eliminates its interaction and/or binding with L-selectin. This conclusion was reached when aliquots of the same precipitates of Example 1, labeled with (a) [^35-S]-sulfate or (b) [^3-H]-fucose in the presence (dark bars) or absence (cross-hatched bars) of chlorate were subjected to scintillation counting. The percents shown in a given panel (a) (not shown) indicate the percent counts obtained in the presence of chlorate as compared to the absence of chlorate. The values for anti-peptide 2, Limax, and AAA were essentially the same, reflecting the overall reduction in sulfation. In an independent experiment, the corresponding values were: 6% (for LEC-IgG), 35.6% (for anti-peptide 2), 35.3% (for Limax)."}, "[5]": {"conditions": "chlorate 10 mM in organ cultures of lymph nodes"}},
  "data": [
    {"smiles": "[O-][Cl+2]([O-])O", "note": "[chlorate, sodium chlorate]", "values": [
      {"measurement": "cpm precipitated by the peptide antibody", "setting": "GlyCAM-1 [1]; ^3H-fucose label, detergent lysates, chlorate versus control cultures", "result": "approximately the same number of cpm"},
      {"measurement": "level of fucosylation (incorporation of [^3H]-fucose into GlyCAM)", "setting": "GlyCAM-1 [1]; presence of chlorate", "result": "not affected"},
      {"measurement": "percent counts in the presence of chlorate as compared to the absence, LEC-IgG", "setting": "L-selectin; [^35-S]-sulfate label, independent experiment, 10000 µM", "result": 6, "unit": "%"},
      {"measurement": "counts precipitated by LEC-IgG", "setting": "L-selectin; ^3H-fucose label, chlorate-treated culture, 10000 µM", "result": "7 % of control"},
      {"measurement": "GlyCAM-1 component precipitated by LEC-IgG from conditioned medium", "setting": "L-selectin; ^3H-threonine label, chlorate present during the culture", "result": "did not react with any components"},
      {"measurement": "radioactivity in the LEC-IgG precipitate", "setting": "L-selectin; ^35S-sulfate label, 10 mM sodium chlorate, detergent lysates", "result": "0.9 % of control"},
      {"measurement": "GlyCAM-1 band precipitated by LEC-IgG (SDS-PAGE)", "setting": "L-selectin; ^35S-sulfate label, chlorate-treated culture, strong band in control", "result": "failed to precipitate a detectable GlyCAM-1 band"},
      {"measurement": "binding to L-selectin (GlyCAM and CD34)", "setting": "L-selectin; [5]", "result": "completely eliminated"},
      {"measurement": "binding of LEC-IgG to GlyCAM", "setting": "L-selectin; culture in chlorate", "result": "completely abrogated"},
      {"measurement": "rate of synthesis of the protein core of GlyCAM or CD34", "setting": "GlyCAM-1 [2]", "result": "did not affect"},
      {"measurement": "ability of CD34/Sgp90 to interact with L-selectin", "setting": "CD34/Sgp90", "result": "drastically inhibited"},
      {"measurement": "[^3H]-galactose activity incorporated by GlyCAM, presence versus absence of chlorate", "setting": "GlyCAM-1 [3]; 10 mM Na-chlorate, 0.25 mCi input", "result": "about the same"},
      {"measurement": "incorporation of [^35S]-sulfate into GlyCAM", "setting": "GlyCAM-1 [3]; 10 mM Na-chlorate, 0.5 mCi input, control 1.75 x 10^6 cpm", "result": "0.16 x 10^6 cpm"},
      {"measurement": "activity at 10000 µM", "setting": "GlyCAM-1 [3]; Mus musculus, 10 mM Na-chlorate, 0.5 mCi input, read-out: incorporation of [^35S]-sulfate into GlyCAM", "result": 10, "unit": "%"},
      {"measurement": "[^3H]-galactose activity incorporated by GlyCAM", "setting": "GlyCAM-1 [3]; presence or absence of chlorate, 0.25 mCi input", "result": "2 x 10^6 cpm"},
      {"measurement": "activity at 10000 µM", "setting": "GlyCAM-1 [4]; Mus musculus, [^35-S]-sulfate label, independent experiment, read-out: percent counts in the presence of chlorate as compared to the absence, Limax", "result": 35.3, "unit": "%"},
      {"measurement": "activity at 10000 µM", "setting": "GlyCAM-1 [4]; Mus musculus, [^35-S]-sulfate label, independent experiment, read-out: percent counts in the presence of chlorate as compared to the absence, anti-peptide 2", "result": 35.6, "unit": "%"},
      {"measurement": "activity at 10000 µM", "setting": "GlyCAM-1 [4]; Mus musculus, ^35S-sulfate label, 10 mM sodium chlorate, detergent lysates, scintillation counting, read-out: radioactivity immunoprecipitated by the peptide antibody", "result": 12, "unit": "%"},
      {"measurement": "activity at 10000 µM", "setting": "GlyCAM-1 [4]; Mus musculus, ^35S-sulfate label, 10 mM sodium chlorate, detergent lysates, read-out: ^35S-sulfate precipitated by Aleuria aurentia lectin", "result": 13.7, "unit": "%"},
      {"measurement": "activity at 10000 µM", "setting": "GlyCAM-1 [4]; Mus musculus, ^35S-sulfate label, 10 mM sodium chlorate, detergent lysates, read-out: ^35S-sulfate precipitated by Limax agglutinin", "result": 11.4, "unit": "%"},
      {"measurement": "inhibition at 10000 µM", "setting": "GlyCAM-1 [4]; Mus musculus, chlorate 10 mM in organ cultures of lymph nodes, read-out: reduction of incorporation of ^35S-SO4 into GlyCAM and CD34", "result": "~90", "unit": "%"},
      {"measurement": "activity at 10000 µM", "setting": "GlyCAM-1 [4]; Mus musculus, inferred from the ratio of counts precipitated by the peptide antibody, read-out: sulfate incorporation into GlyCAM-1", "result": "10 to 15", "unit": "%"},
      {"measurement": "Binding of GlyCAM to a fucose-specific lectin (Aleuria aurantia agglutinin)", "setting": "GlyCAM-1 [4]; [5]", "result": "unchanged"},
      {"measurement": "Binding of GlyCAM to a sialic acid specific lectin (Limax agglutinin)", "setting": "GlyCAM-1 [4]; [5]", "result": "unchanged"}
    ]}
  ]
}
